Measurements as given in patent US12485191B2, “Radiopharmaceuticals and methods of use thereof” (BOARD OF REGENTS OF THE UNIVERSITY OF NEBRASKA, priority 2017, dated 2025).
Marks after values point to notes of the source that are not given here. Each block holds one compound with its values, some of them ahead of it.

Columns and labels:
[1] = Distribution coefficient (Log D7.4) of the conjugates; type: physicochemical; details: determined by radiometric analysis; 177Lu-labeled conjugate
Procedure: Distribution Coefficient (Log D7.4) of the Conjugates The distribution coefficient was determined for each ^177Lu-labeled conjugate. In a 1.5 mL centrifuge tube, 0.5 mL of 1-octanol was added to 0.5 mL of PBS (pH 7.4) containing the radiolabeled peptide (500,000 cpm). The solution was vigorously vortexed for 2 minutes at room temperature and subsequently centrifuged to yield two immiscible layers. The radioactivity of the aliquots (100 μL) taken from each layer were quantified by the gamma counter and the Log D7.4 for each conjugates was calculated.

[2] = tested on: HT-29 xenograft tumors; experiment: Biodistribution study in HT-29 xenograft mouse model; type: in vivo, mice; details: HT-29 xenograft, by 24 hours
Procedure: Female SCID mice (5 weeks of age) received subcutaneous injections of HT-29 cells (5×10^6) suspended in Matrigel® into the flanks. When the tumor size reached 80 mm^3 (two weeks after injection), the mice were randomized into three groups and intravenously injected with 10 μCi (0.37 MBq) of the purified ^177Lu labeled conjugates via tail vein. The mice were sacrificed and the tissues were excised at 4, 24, and 72 hours post-injection time points. The blood, tumor, and excised tissues were weighed. The radioactivity for each sample was measured using a gamma counter. The percentage injected dose per gram (% ID/g) and the radioactivity ratios between tumor and non-targeted tissues were calculated.

[3] = tested on: HT-29 cells; experiment: HT-29 cell efflux study; type: cell-based, human; details: at 24 hours
Procedure: The HT-29 Cell Efflux Studies
The ^177Lu radioconjugate was added to a sterilized 1.5 mL microcentrifuge tube containing HT-29 cells ˜1×10^6) suspended in 300 μL of cell culture medium, yielding a final radioactivity concentration of 100,000 cpm/100 μL, and was incubated for 2 hours at 37° C. After the removal of the culture medium, the cells were washed with fresh medium (5×500 μL) followed by the addition of 500 μL of fresh medium for the efflux assay. At 0, 1, 2, 4, 8, and 24 hour time interval, fresh medium (500 μL) was added to the tube to replace the old medium which was harvested for quantitative analysis of the effluxed radioactivity using a gamma counter. The cells were lysed with a 10% aqueous SDS solution at 24 hour to quantify the remaining internalized radioactivity. The effluxed fraction is expressed as a percentage of the total radioactivity added to the tube, which is the sum of the effluxed and internalized fractions obtained from the study.

[4] = tested on: HT-29 xenograft tumors; experiment: Tissue adduct formation of the radioconjugates (SDS-PAGE, centrifugal filtration); type: in vivo, mice; details: autoradiographic SDS-PAGE, 24 hours post-injection
Procedure: The radioconjugates (800 μCi/mouse) were intravenously injected to the tumor bearing mice. The mice were sacrificed and the tumor, liver, and kidney were excised at 24 and 72 hours post-injection time points. The tumor and organs were homogenized in RIPA buffer (50 mg/100 μL) containing Halt™ protease inhibitor (100×, 1 μL) on ice and centrifuged to remove the pellet. An aliquot (20 μL) of the supernatant of the sample at 24 hours was mixed with Novex Tris-Glycine SDS sample buffer (2×, 20 μL) and incubated for further 10 minutes. The mixtures (20 μL) were loaded onto a Novex 16% tris-glycine gel and analyzed by SDS-PAGE at 110 V for 90 minutes. The autoradiograph of the SDS-PAGE was performed according to the same method in section 3.8.1. On the other hand, the aliquots (100 μL) of supernatants of all the tumor samples at 24 hours and 72 hours were individually centrifuged with Pierce™ protein concentrators (MWCO=10 kDa) to separate the low molecular weight radioactivity. The radioactivity in each fraction was quantified using a gamma counter to calculate the percentage of the cysteine proteases trapped radioconjugate in the total counts.

[5] = tested on: HT-29 cells; experiment: Intracellular trapping of the radioconjugates in living HT-29 cells (GPC, SDS-PAGE); type: cell-based, human; details: live HT-29 cells, GPC and SDS-PAGE
Procedure: Intracellular Trapping of the Radioconjugates in Living HT-29 Cells
To the HT-29 cells (1×10^6/well) seeded in 6-well plates was added the radioconjugates (0.74 MBq, 20 μCi) in 1 mL of cell culture medium. The cells were incubated at 37° C. for 4 hours and the medium was removed by vacuum followed washing with PBS (2×2 mL). The cells (˜3×10^6) were trypsinized and combined in microcentrifuge. The RIPA buffer (100 μL) containing Halttmprotease inhibitor (100×, 1 μL) was added to the cell pellet and vigorously vortexed for 1 minute. The suspension was incubated on ice for 15 minutes and centrifuged to remove the pellet. The supernatant (80 μL) was equally divided into two portions. The first portion (40 μL) was directly analyzed by radioactive-GPC with a flow rate of 0.6 mL/minute (40% ACN in PBS containing 0.1% sodium azide). The second portion (40 μL) of the cell lysate was mixed with Novex Tris-Glycine SDS sample buffer (2×) (40 μL) and incubated for another 15 minutes. The mixture (30 μL) was loaded onto a Novex 16% tris-glycine gel and analyzed by SDS-PAGE at 110 V for 90 minutes. The autoradiograph of the SDS-PAGE was performed as described above.

[6] = molecular target: T1, cathepsin B (human Liver) (Homo sapiens, UniProt P07858); experiment: Inhibition constant (Ki) of the compounds to cathepsin B; type: biochemical
T1 construct: from tissue; host or cells: human liver
Procedure: Determination of the Km and Vmax of Cathepsin B for Z-Arg-Arg-AMC
The solution of cathepsin B (human Liver) (50 μL, 2 nM) in assay buffer used above was mixed with 50 μL of solution of substrate Z-Arg-Arg-AMC in the assay buffer at different concentrations ([S]) (25 μM, 50 μM, 100 μM, 500 μM and 1 mM). The mixture was incubated at 37° C. and the fluorescence of the liberated aminomethylcoumarin at 460 nM using 355 nm excitation was measured at predetermined time points (0, 2, 4, 6, 8, and 10 minutes). The fluorescence intensity was plotted versus time and the reaction rates (v0) were calculated as the slope of the trend lines obtained by liner regression. Km and maximum reaction rate (Vmax-obs) was determined from the equation v0=Vmax[S]/(Km+[S]) and solved by nonlinear regression using GraphPad Prism 5. All measurements were in biological triplicate.
Determination of the Inhibition Constant (Ki) of the Compounds to Cathepsin B
The cathepsin B (human Liver) in assay buffer (25 μL) was mixed with the conjugate (25 μL) in 96-well plate. After the solution was mixed, the Z-Arg-Arg-AMC in assay buffer (50 μL) was added to the well, yielding a final cathepsin B concentration of 1 nM, conjugate concentration ([C]) of 15 nM or 5 μM, and substrate concentration ([S]) of 25 μM, 50 μM, 100 μM, 500 μM and 1 mM. The mixture was incubated at 37° C. and the fluorescence of the liberated aminomethylcoumarin at 460 nM using 355 nm excitation was measured at predetermined time points (0, 2, 4, 6, 8, and 10 minutes). The fluorescence intensity was plotted versus time with observed reaction rates (v0-obs) calculated as the slope of the trend lines obtained by liner regression. The observed rate constant (Kobs) and observed maximum reaction rate (Vmax-obs) was determined from the equation v0-obs=Vmax-obs [S]/(Kobs+[S]) and solved by nonlinear regression using GraphPad Prism 5. The Ki was calculated from the equation Kobs=Km (1+[C]/Ki). All measurements were in biological triplicate.

[7] = tested on: HT-29 xenograft tumors; design: species or system mice; details: mouse
Procedure: Evaluation of Cysteine Proteases Trapping of the Cy 5-Labeled Conjugates
The Cy 5-labeled conjugates (40 nmol) were intravenously injected to the tumor bearing mice. The mice were sacrificed at 24 post-injection time points, and the heart, lung, liver, spleen, pancreas, kidney, intestine, brain, and tumor were excised and imaged using an IVIS spectrum system. The tumor and organs were homogenized in RIPA buffer (50 mg/100 μL) containing Halt™ protease inhibitor (100×, 1 μL) on ice and centrifuged to remove the pellet. An aliquot (18 μL) of the supernatant of the sample was added in NuPAGE® sample reducing reagent (10×, 2 μL) and denatured at 80° C. for 2 minutes. The sample was mixed with Novex Tris-Glycine S DS sample buffer (2×, 20 μL) and incubated for further 10 minutes. The mixtures (20 μL) were loaded onto a Novex 16% tris-glycine gel and analyzed by SDS-PAGE at 110 V for 90 minutes, followed by electro transferring onto PVDF membranes. The PVDF membranes were blocked by animal-free blocking buffer for 1 hour at room temperature and then were incubated with Cathepsin B (D1C7Y) XP® Rabbit mAb at 4° C. for overnight. Membranes was then incubated with Goat anti-Rabbit IgG (H+L) secondary antibody at room temperature for 1 hour and visualized using Typhoon FLA 9500.

[8] = molecular target: CatL (Homo sapiens, UniProt P07711); experiment: CatL inhibition constant; type: biochemical
CatL, sequence (P07711 114-333): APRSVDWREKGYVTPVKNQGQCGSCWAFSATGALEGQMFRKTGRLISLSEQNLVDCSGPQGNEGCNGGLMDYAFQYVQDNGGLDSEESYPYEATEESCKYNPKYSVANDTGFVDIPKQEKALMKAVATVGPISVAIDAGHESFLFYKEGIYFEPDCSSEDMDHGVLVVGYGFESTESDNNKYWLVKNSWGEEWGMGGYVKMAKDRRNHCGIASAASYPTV

[9] = tested on: PC-3 tumor; details: mouse, in vivo
[10] = molecular target: CatB (Homo sapiens, UniProt P07858); experiment: CatB inhibition of GRPR-targeted agents; type: biochemical
Procedure: The Inhibition of Cathepsin B Activity by the Conjugates The phosphate buffer (0.1 M, pH=5.8) containing EDTA (1 mM), DTT (2.7 mM), and Brij®35 (0.03%) was prepared before the assay. […] The solution of cathepsin B (human Liver) in assay buffer (50 μL, 0.544 nM) was added to the mixture which was further incubated at 37° C. for 20 minutes. The fluorescence of the liberated aminomethylcoumarin at 460 nM using 355 nm excitation was measured and the IC50 of the cathepsin B inhibition versus the samples without the inhibitor was determined by nonlinear regression using GraphPad Prism 5.

[11] = molecular target: GRPR (Homo sapiens, UniProt P30550); experiment: GRPR affinity of GRPR-targeted agents; type: binding
GRPR, sequence (P30550 whole entry): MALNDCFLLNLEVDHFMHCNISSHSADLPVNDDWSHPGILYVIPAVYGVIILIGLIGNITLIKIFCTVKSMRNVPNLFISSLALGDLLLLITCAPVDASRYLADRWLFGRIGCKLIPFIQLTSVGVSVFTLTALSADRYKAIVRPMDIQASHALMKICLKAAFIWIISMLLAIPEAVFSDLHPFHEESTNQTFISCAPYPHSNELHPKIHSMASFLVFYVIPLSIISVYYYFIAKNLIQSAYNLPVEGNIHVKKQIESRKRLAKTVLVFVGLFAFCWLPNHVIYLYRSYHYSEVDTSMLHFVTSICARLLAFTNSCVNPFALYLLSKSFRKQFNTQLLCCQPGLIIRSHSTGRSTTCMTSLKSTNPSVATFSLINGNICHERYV

SMILES: Cc1cc(O)cc(C)c1C[C@H](NC(=O)[C@@H]1CCCN1C(=O)[C@H](CCCNC(=N)N)NC(=O)[C@H](CCCNC(=N)N)N(C)C(=O)[C@@H]1CCCN1C(=O)[C@H](CCCCN)NC(=O)[C@@H](CO)NC(=O)[C@@H](CO)NC(=O)[C@@H](CO)NC(=O)[C@H](Cc1cn(CC(=O)N[C@H](CO)C(=O)N[C@H](CO)C(=O)N[C@H](CO)C(=O)NCC(=O)NCCCC[C@H](NC(=O)[C@H](Cc2ccccc2)NC(=O)OCc2ccccc2)C(=O)NCCc2ccccc2)nn1)NC(=O)CN1CCN(CC(=O)O)CCN(CC(=O)O)CCN(CC(=O)O)CC1)C(=O)N[C@H](C(=O)N[C@@H](CC(C)C)C(=O)O)C(C)(C)C [Compound 3b]
logD7.4 [1]: −2.01 ± 0.06^b
decrease in tumor retention [2]: 40%
efflux [3]: 69%
in vivo adduct formation (in words) [4]: no signs of adduct formation
intracellular adduct formation (in words) [5]: no adduct formation
CatB K1 [6]: ni
Ki and inhibition IC50 to CatB (in words) [6]: did not demonstrate any inhibition

SMILES: Cc1cc(C)c(C(=O)OCC(=O)[C@H](CCCCNC(=O)CNC(=O)[C@@H](CO)NC(=O)[C@@H](CO)NC(=O)[C@@H](CO)NC(=O)Cn2cc(C[C@H](NC(=O)CCCCC[N+]3=C(/C=C/C=C/C=C4/N(C)c5ccccc5C4(C)C)C(C)(C)c4ccccc43)C(=O)N[C@H](CO)C(=O)N[C@H](CO)C(=O)N[C@H](CO)C(=O)N[C@@H](CCCCN)C(=O)N3CCC[C@H]3C(=O)N(C)[C@@H](CCCNC(=N)N)C(=O)N[C@@H](CCCNC(=N)N)C(=O)N3CCC[C@H]3C(=O)N[C@@H](Cc3c(C)cc(O)cc3C)C(=O)N[C@H](C(=O)N[C@@H](CC(C)C)C(=O)O)C(C)(C)C)nn2)NC(=O)[C@H](Cc2ccccc2)NC(=O)OCc2ccccc2)c(C)c1 [Compound 4a]
tumor retention by ex vivo imaging (in words) [7]: greater than its counterpart 4b

CatL Ki [8]: ni^b
CatB Ki ([6]; Table 3): ni^b
SMILES: Cc1cc(O)cc(C)c1C[C@H](NC(=O)[C@@H]1CCCN1C(=O)[C@H](CCCNC(=N)N)NC(=O)[C@H](CCCNC(=N)N)N(C)C(=O)[C@@H]1CCCN1C(=O)[C@H](CCCCN)NC(=O)[C@@H](CO)NC(=O)[C@@H](CO)NC(=O)[C@@H](CO)NC(=O)[C@H](Cc1cn(CCNC(=O)[C@H](CCCNC(=N)N)NC(=O)[C@H](CC(C)C)NC(=O)CCC(=O)O)nn1)NC(=O)CN1CCN(CC(=O)O)CCN(CC(=O)O)CCN(CC(=O)O)CC1)C(=O)N[C@H](C(=O)N[C@@H](CC(C)C)C(=O)O)C(C)(C)C [Ec]

IC50 [10]: > 200000 nM
IC50 [11]: 16.5 ± 3.3 nM
SMILES: CSCC[C@H](NC(=O)[C@H](CC(C)C)NC(=O)[C@H](Cc1c[nH]cn1)NC(=O)CNC(=O)[C@@H](NC(=O)[C@H](C)NC(=O)[C@H](Cc1c[nH]c2ccccc12)NC(=O)[C@H](CCC(N)=O)NC(=O)CCOCCOCCOCCOCCNC(=O)[C@H](Cc1cn(CCNC(=O)[C@H](CCCNC(=N)N)NC(=O)[C@H](CC(C)C)NC(=O)CCC(=O)O)nn1)NC(=O)CN1CCN(CC(=O)O)CCN(CC(=O)O)CCN(CC(=O)O)CC1)C(C)C)C(N)=O [^177Lu-C-AG, metal not drawn]
tumor retention [9]: 32%
